Data: patent US20180153995A1, “USE OF ANTIMICROBIAL POLYMERS FOR RE-SENSITIZATION OF MICROORGANISMS UPON EMERGENCE OF RESISTANCE TO ANTI-MICROBIAL AGENTS” (Technion Research & Development Foundation Limited, priority 2008, published 2018)
In brackets after ≈: the same amount, converted by molar mass. Several values for one entry are separate records, joined by “and”; a condition that tells them apart may be missing. Equal entries are not always repeated. Where two headings read alike, the source gives them in different places.

How the values were obtained:
[1] = system: E. coli N281 (L22 mutation); format: cell-based, Escherichia coli; details: E. coli N281 L22 mutation
[2] = system: MRSA 15903; assay: Sub-MIC time-kill curves (CFU counts); format: cell-based, Staphylococcus aureus
Experimental: At the specified time points of incubation (37° C. under shaking), cultures were subjected to serial 10-fold dilutions (up to 10^6) by adding 50 μl of sample to 450 μl saline (0.85% NaCl). Cell counts were determined using the drop plate method (three 20-μl drops onto LB-agar plates). Plates were incubated at 37° C. and colonies were counted for the calculation after incubation for 24 hours.

[3] = system: S. aureus ATCC 29213; details: as determined by the Clinical and Laboratory Standard Institute; cited from earlier work
[4] = system: S. aureus ATCC 29213; assay: microbe, parasite or virus in culture; details: Staphylococcus aureus, ATCC29213, read-out: Oxacillin's MIC
Experimental: In parallel, MIC evolution was compared concomitantly for each new sub-culture, using bacteria harvested from control wells (wells cultured without antimicrobial agent from the previous sub-culture). The relative MIC was calculated for each experiment from the ratio of MIC obtained for subculture “n” to that obtained for first-time exposure.
The relative MIC was determined as the normalized ratio of the MIC obtained for a given subculture to the MIC of the control.
MICs were determined by microdilution susceptibility testing in 96-well plates using inocula of 10^5 bacteria per ml. Cell populations were evaluated by optical density measurements at 600 nm and were calibrated against a set of standards.
In parallel, MIC evolution was compared concomitantly for each new generation, using bacteria harvested from control wells (wells cultured without antimicrobial agent from the previous generation). The relative MIC was calculated for each experiment from the ratio of MIC obtained for subculture “n” to that obtained for first-time exposure. […] MICs were determined by microdilution susceptibility testing in 96-well plates. Cell populations were evaluated by optical density measurements at 600 nm and were calibrated against a set of standards.

[5] = system: MRSA 15918; assay: microbe, parasite or virus in culture; format: cell-based, Staphylococcus aureus; details: Staphylococcus aureus, MRSA; read-out: MIC
Experimental: (§1) MICs were determined by microdilution susceptibility testing in 96-well plates (by Nunc) using inocula of 10^5 bacteria per ml. Cell populations were evaluated by optical density measurements at 620 nm and were calibrated against a set of standards. Hundred (100) μl of a bacterial suspension were added to 100 μl of culture medium (control) or to 100 μl of culture medium containing various polymer concentrations in 2-fold serial dilutions. Inhibition of proliferation was determined by optical density measurements at 620 nm after an incubation period of 24 hours at 37° C.
(§2) The fractionary inhibitory (FIC) concentration index for combinations of two antimicrobial agents was calculated as follows: FIC index=FICA+FICB=A/MICA+B/MICB where A and B are the MIC values of agent A and agent B in the combination, MICA and MICB are the MICs of agent A and agent B alone, and FICA and FICB are the FICs of agent A and agent B.
(§3) The FIC indexes were interpreted as follows: less than 0.5 indicates a clear re-sensitizing effect; from 0.5 to 4 indicates a marginal or null re-sensitizing effect; and over 4 indicates antagonism.

[6] = system: ATCC 29213; assay: microbe, parasite or virus in culture; format: cell-based, Staphylococcus aureus; details: Staphylococcus aureus, ATCC29213; read-out: MIC
Experimental: as §1, §2, §3

[7] = system: E. coli CI14213; format: cell-based, Escherichia coli
How it was run: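 MICs were determined by broth microdilution with an inoculum of 10^5 bacteria per ml, the bacterial suspension being added to medium alone or to medium with 2-fold serial dilutions of polymer. After 24 h at 37 °C, inhibition of proliferation was read as optical density at 620 nm.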

[8] = system: ATCC 25923; assay: microbe, parasite or virus in culture; format: cell-based, Staphylococcus aureus; details: Staphylococcus aureus, ATCC25923; read-out: MIC
Experimental: as §1

Row | SMILES | Antibiotic MIC ([1]; +¼ MIC C12K(NC8K)5NH2) [µg/mL] | Antibiotic MIC ([1]; +¼ MIC C12K(NC8K)7NH2) | Antibiotic MIC ([1]; +½ MIC C12K(NC8K)5NH2) [µg/mL] | Antibiotic MIC ([1]; +⅓ MIC C12K(NC8K)7NH2) [µg/mL] | Antibiotic MIC ([1]; no OAK, Table 18) [µg/mL] | Antibiotic MIC ([1]; no OAK, Table 19) [µg/mL] | reduction of bacterial counts compared to the most active single agent ([2]; 24 hours, oxacillin 0.78 μM + NC12(KNC12K)2NH2 2.1 μM) [log10 CFU/ml] | surviving organisms below the starting inoculum ([2]; oxacillin 0.78 μM + NC12(KNC12K)2NH2 2.1 μM) [log10 CFU/ml] | bactericidal activity, agent alone ([2]; sub-MIC time-kill, single agent) | Oxacillin's MIC per CLSI M100-S15 [3] [µg/mL] | MIC [4] | MIC [5] [µg/mL] | MIC [6] [µg/mL] | activity of oxacillin alone ([7]; E. coli CI14213, 24 hours incubation) | concentration up to which E. coli is insensitive to oxacillin ([7]; E. coli, oxacillin alone) [µg/mL] | MIC [8] [µg/mL]
1 | CC[C@H]1OC(=O)[C@H](C)[C@@H](O[C@H]2C[C@@](C)(OC)[C@@H](O)[C@H](C)O2)[C@H](C)[C@@H](O[C@@H]2O[C@H](C)C[C@H](N(C)C)[C@H]2O)[C@](C)(O)C[C@@H](C)C(=O)[C@H](C)[C@@H](O)[C@]1(C)O [Erythromycin, erythromycin] | 512 | >512-512 μg/ml | 16 to 32 | 512 | >512 | >512 |  |  |  |  |  |  |  |  |  | 
2 | Cc1onc(-c2ccccc2)c1C(=O)N[C@@H]1C(=O)N2[C@@H]1SC(C)(C)[C@@H]2C(=O)O [Oxacillin, oxacillin] |  |  |  |  |  |  | 4.7 | 0.76 | no bactericidal activity | 0.125 to 0.5 | 0.28 µM and 0.125 µg/mL | 64 | 0.09 | inactive | > 512 | 0.17 (≈ 0.423 µM)
